Test [1] concerns the target T1, hGLP1 receptor (Homo sapiens, UniProt P43220).
T1 construct: expressed in transfected cells; host or cells: HEK (human embryonic kidney) cells co-expressing hGLP1 receptor and CRE-Luciferase
In words: GLP-1 receptor agonism assay (HTRF cAMP, HEK cells co-expressing hGLP1 receptor and CRE-Luciferase). Type of test: cell-based. Conditions: for decreased potency by Aib substitution: Aib-scanning, versus parent analog RXL-101; for Emax: HEK293, Table 6 potency profile; for pEC50 / dpEC50 (contribution of Cα-methylation) / EC50: 0% HSA; for dpEC50 (contribution of Cα-methylation): dpEC50 = pEC50 (Aib) − pEC50 (Ala) − 0.97, Aib peptide versus the Ala peptide of the same line; for EC50: Table 2, Ala-scanning, >1000 nM = out of range, read-out: cAMP EC50; for decreased potency (Aib/Ala comparison): versus respective parent analog. (In TR-FRET formats the signal depends on donor and acceptor labels being close together.)

The target of test [2] is human GLP-1 receptor (hGLP-1R). On the set-up: method as in PMID 31031702. The following applies: read-out: potency at the human GLP-1 receptor; cited from earlier work.

The text below walks through data of article PMC11721672, “Design, Structure–Activity Relationships, and Computational Modeling Studies of a Series of α-Helix Biased, Ultra-Short Glucagon-like Peptide-1 Receptor Agonists” (Molecules, 2024).

Square brackets hold non-standard residues; d marks the D form. Peptide text beside a SMILES is read from it. Bip = N[C@@H](Cc1ccc(-c2ccccc2)cc1)C(=O)O; αMePhe(2-F) = C[C@](N)(Cc1ccccc1F)C(=O)O; Phe(2-F) = N[C@@H](Cc1ccccc1F)C(=O)O; Aib = CC(C)(N)C(=O)O

T1 sequence (P43220 24-463): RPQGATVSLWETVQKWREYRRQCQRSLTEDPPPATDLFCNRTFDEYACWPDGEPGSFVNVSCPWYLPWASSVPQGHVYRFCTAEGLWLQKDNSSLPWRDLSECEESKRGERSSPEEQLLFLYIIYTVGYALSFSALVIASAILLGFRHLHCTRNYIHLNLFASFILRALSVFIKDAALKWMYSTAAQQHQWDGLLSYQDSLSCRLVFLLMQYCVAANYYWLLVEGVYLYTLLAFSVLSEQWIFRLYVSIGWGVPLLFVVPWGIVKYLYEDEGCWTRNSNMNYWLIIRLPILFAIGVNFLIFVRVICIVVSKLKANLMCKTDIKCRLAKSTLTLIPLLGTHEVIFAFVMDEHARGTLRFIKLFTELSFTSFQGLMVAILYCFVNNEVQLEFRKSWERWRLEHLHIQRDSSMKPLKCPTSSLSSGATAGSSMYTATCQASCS

One may read the Emax as the size of the effect at its maximum, as opposed to the concentration needed. In general, pEC50 refers to the EC50 on a negative log10 scale, so that one unit is a factor of ten. A low value points to a high EC50. With `C[C@@H](O)[C@H](NC(=O)CNC(=O)[C@H](CCC(=O)O)NC(=O)C(C)(C)NC(=O)[C@@H](N)Cc1c[nH]cn1)C(=O)N[C@@](C)(Cc1ccccc1F)C(=O)N[C@H](C(=O)N[C@@H](CO)C(=O)NC(C)(C)C(=O)N[C@@H](Cc1ccc(-c2ccccc2)cc1)C(=O)N[C@@H](Cc1ccc(-c2ccccc2)cc1)C(N)=O)[C@@H](C)O` [RXL-3036, His-Aib-Glu-Gly-Thr-α-Me-Phe(2-F)-Thr-Ser-Aib-Bip-Bip-NH2] (H-H[Aib]EGT[αMePhe(2-F)]TS[Aib][Bip][Bip]-NH2), in test [1], the “decreased potency by Aib substitution” value is reported as not below 100 fold, the maximal response (Emax) came out at 96.7% and the “dpEC50 (contribution of Cα-methylation)” value was −2.26. In addition, the negative-log EC50 (pEC50) in test [1] (Table 4, Aib-scan peptides) was found to be 7.04. In addition, in test [1] (same position, Ala superior to Aib), the “decreased potency of Aib analog versus Ala analog” value was “about fivefold”.

In the case of `C[C@H](NC(=O)[C@H](CCC(=O)O)NC(=O)C(C)(C)NC(=O)[C@@H](N)Cc1c[nH]cn1)C(=O)N[C@H](C(=O)N[C@@H](Cc1ccccc1F)C(=O)N[C@H](C(=O)N[C@@H](CO)C(=O)N[C@@H](CC(=O)O)C(=O)N[C@@H](Cc1ccc(-c2ccccc2)cc1)C(=O)N[C@@H](Cc1ccc(-c2ccccc2)cc1)C(N)=O)[C@@H](C)O)[C@@H](C)O` [RXL-3037, His-Aib-Glu-Ala-Thr-Phe(2-F)-Thr-Ser-Asp-Bip-Bip-NH2] (H-H[Aib]EAT[Phe(2-F)]TSD[Bip][Bip]-NH2), in test [1], the Emax came to 73.8%, the EC50 was 210 nM and the “decreased potency (Aib/Ala comparison)” value is given as 2000 fold. This compound also yielded a negative logarithm of the EC50 (pEC50) in test [1] (Table 4, Ala-scan peptides) of 6.46.

In the case of `C[C@H](NC(=O)[C@@H](NC(=O)CNC(=O)[C@H](CCC(=O)O)NC(=O)C(C)(C)NC(=O)[C@@H](N)Cc1c[nH]cn1)[C@@H](C)O)C(=O)N[C@H](C(=O)N[C@@H](CO)C(=O)N[C@@H](CC(=O)O)C(=O)N[C@@H](Cc1ccc(-c2ccccc2)cc1)C(=O)N[C@@H](Cc1ccc(-c2ccccc2)cc1)C(N)=O)[C@@H](C)O` [RXL-3038, His-Aib-Glu-Gly-Thr-Ala-Thr-Ser-Asp-Bip-Bip-NH2] (H-H[Aib]EGTATSD[Bip][Bip]-NH2), in test [1], the maximal effect (Emax) was 37.4%, the EC50 is more than 1000 nM and the “decreased potency (Aib/Ala comparison)” value is listed as more than 1000 fold. In addition, the pEC50 in test [1] (Table 4, Ala-scan peptides) was 5.55.

Turning to `C[C@@H](O)[C@H](NC(=O)CNC(=O)[C@H](CCC(=O)O)NC(=O)C(C)(C)NC(=O)[C@@H](N)Cc1c[nH]cn1)C(=O)N[C@@](C)(Cc1ccccc1F)C(=O)N[C@H](C(=O)N[C@@H](CO)C(=O)N[C@@H](CC(=O)O)C(=O)NC(C)(C)C(=O)N[C@@H](Cc1ccc(-c2ccccc2)cc1)C(N)=O)[C@@H](C)O` [RXL-3051, His-Aib-Glu-Gly-Thr-α-Me-Phe(2-F)-Thr-Ser-Asp-Aib-Bip-NH2] (H-H[Aib]EGT[αMePhe(2-F)]TSD[Aib][Bip]-NH2), in test [1], the “decreased potency by Aib substitution” value is not below 100 fold, the maximal effect (Emax) was determined as 26.8%, the “dpEC50 (contribution of Cα-methylation)” value is reported as −1.34 and the “decreased potency (Aib/Ala comparison)” value is reported as > 10,000 fold.

For the compound `C[C@@H](O)[C@H](NC(=O)CNC(=O)[C@H](CCC(=O)O)NC(=O)C(C)(C)NC(=O)[C@@H](N)Cc1c[nH]cn1)C(=O)N[C@@](C)(Cc1ccccc1F)C(=O)N[C@H](C(=O)N[C@@H](CO)C(=O)N[C@@H](CC(=O)O)C(=O)N[C@@H](Cc1ccc(-c2ccccc2)cc1)C(=O)NC(C)(C)C(N)=O)[C@@H](C)O` [RXL-3052, His-Aib-Glu-Gly-Thr-α-Me-Phe(2-F)-Thr-Ser-Asp-Bip-Aib-NH2] (H-H[Aib]EGT[αMePhe(2-F)]TSD[Bip][Aib]-NH2), in test [1] (Aib analog versus Ala analog at the same position), the “rescue of potency by Aib versus Ala substitution” value is recorded as “more than 100 fold”. In test [1], the maximal effect (Emax) was determined as 112% and the “dpEC50 (contribution of Cα-methylation)” value came out at 1.11.

Consider semaglutide, for which, in test [2], the EC50 was 0.0062 nM.
